Results as given in US8304202B2, “Interaction of BIM with TRIM2” (priority 2007, dated 2012).
“Also recorded” adds a separate entry of the source. Read-outs that look alike come from different tables or passages of the source. Residues, ends and D or L forms follow the SMILES beside them. *: point of attachment. Cbz = O=C(OCc1ccccc1)*

Assays:
[1] = test system: rat cortical neuronal cultures; experiment: Rapid ischemic tolerance: cell death after harmful ischemia (OGD) with preconditioning ischemia, propidium iodide staining; type: cell-based; settings: for rapid ischemic tolerance: neuronal cultures, preconditioning ischemia; for neuroprotective effect of preconditioning: 10 μM, one hour incubation following 30 minutes of preconditioning OGD, cell death 24 hours after 120 minutes of harmful ischemia
Experimental: (§1) Neurons were exposed to ischemic conditions, namely, oxygen and glucose deprivation (OGD), by washing the cells with phosphate-buffered saline (NaCl ([…]), KCl (2.7 mM), Na2HPO4 (10 mM), KH2PO4 (1.7 mM), pH 7.4) supplemented with 0.5 mM CaCl2, 1.0 mM MgCl2 and placing the cells (in culture dishes) in an anaerobic chamber (85% N2, 5% H2, 10% CO2; 35° C.) for 30 minutes (preconditioning ischemia) or 120 minutes (harmful ischemia).
Cell death was assessed 24 hours following 120 minutes of harmful ischemia using propidium iodide staining. Data shown are mean±S.E. (n=8). Data were analyzed by one-way ANOVA, with Bonferroni's post-hoc test. *, p<0.05.
Cells were incubated for one hour following 30 minutes of preconditioning OGD with either PD98059 or U0126 (both 10 μM), which are compounds that prevent p42/p44 MAPK activation by inhibiting an upstream regulatory MAPK kinase (MEK).

Bim protein = Bim protein levels by immunoblot following preconditioning ischemia; type: cell-based, rat; settings: for Bim degradation: following preconditioning ischemia
Experimental: as §1
Bim protein levels were determined by immunoblotting, and then the blots were re-probed with α-tubulin to control for loading.
(§2) In the top and middle panels of the figure, phosphorylation of p42/p44 MAPK was determined by immunoblot, and the blots were re-probed for total p42/p44 MAPK expression. In the bottom panel of the figure, cells were subjected to preconditioning ischemia and then recovered in the presence of U0126. Bim expression was determined by immunoblot. Data shown are representative of three independent experiments.
The effect of U0126 on Bim protein levels also was investigated following 30 minutes of OGD.

p42/p44 MAPK = test system: p42/p44 MAPK
Experimental: as §2
As a control, the same blot was probed for non-phospho-p42/p44 MAPK.

Bim = settings: following preconditioning ischemia
From the text: The experiments described in this example investigate the degradation of the pro-apoptotic Bcl-2 family member Bim as a mechanism of rapid ischemic tolerance.

HCC1419 cells = experiment: Cell death as LDH release (absorbance at 492 nm) in HCC1419 cells; type: cell-based; settings: for EC50: Homo sapiens, LDH release
Experimental: (§3) The stabilization of Bim in cells by blocking Bim degradation may sensitize the cells to an additional anti-cancer agent and promote cell death. […] Cell death was measured as a release of the enzyme lactate dehydrogenase (LDH), which is detected as absorbance at 492 nm.
(§4) Cells were incubated with various concentrations of doxorubicin (μM) for 72 h, in the absence (solid squares) or presence (open circles) of 100 μM U0126.

MCF-7 cells = experiment: Cell death as LDH release (absorbance at 492 nm) in MCF-7 cells; type: cell-based; settings: 100 μM U0126
Experimental: as §3, §4

[2] = test system: GST-Bim polypeptide with TRIM2 protein; settings: cells incubated with inhibitor, preconditioning ischemia
Experimental: To follow up on this observation, co-immunoprecipitation was utilized to determine whether TRIM2 binding to Bim correlates with the degradation of Bim following preconditioning ischemia in neuronal cultures. GST-Bim was incubated with cell lysates from control neurons (“CONT”; open bars) and neurons exposed to preconditioning ischemia (“PC”; hatched bars). GST-Bim interacting with TRIM2 then was co-immunoprecipitated with anti-TRIM 2 antibody and detected by immunoblot with an anti-GST antibody.

CC(C)C[C@@H](C=O)NC(=O)[C@H](CC(C)C)NC(=O)[C@H](CC(C)C)NC(=O)OCc1ccccc1 [MG-132] (Cbz-Leu-Leu-Leu-aldehyde)
rapid ischemic tolerance [1]: blocked rapid ischemic tolerance | Bim degradation (Bim protein): prevented Bim degradation

COc1cccc(-c2cc(=O)c3ccccc3o2)c1N [PD98059, 2-(2-Amino-3-methoxyphenyl)-4H-1-benzopyran-4-one]
neuroprotective effect of preconditioning [1]: blocked

N#CC(=C(/N)Sc1ccccc1N)/C(C#N)=C(\N)Sc1ccccc1N [U0126, 1,4-diamino-2,3-dicyano-1,4-bis(2-aminophenylthio)butadiene]
neuroprotective effect of preconditioning [1]: blocked | rapid ischemic tolerance [1]: blocked rapid ischemic tolerance; also recorded: blocks | Bim protein expression in control-treated cells (Bim protein; control-treated cells, no preconditioning): no effect | Bim degradation (Bim protein): reduced; also recorded: blocks | decrease in Bim protein expression at one hour following 30 minutes of preconditioning ischemia (Bim protein; recovery in the presence of U0126): blocked | phosphorylation of MAPK in control cells (p42/p44 MAPK; control cells treated with U0126 alone): no phosphorylation of MAPK | total levels of p42/p44 MAPK (p42/p44 MAPK; following preconditioning ischemia or U0126 treatment): did not change | increase in p42/p44 MAPK phosphorylation following preconditioning ischemia (p42/p44 MAPK; one hour following preconditioning ischemia): blocked | Bim ubiquitination (Bim): reduced | enhancement of doxorubicin-induced cell death (HCC1419 cells; HCC1419 cells (low Bim:TRIM2 ratio), 100 μM U0126): enhancement | cell death (LDH release) (HCC1419 cells; HCC1419 cells, U0126 alone): does not induce cell death | enhancement of doxorubicin-induced cell death (MCF-7 cells; MCF-7 cells (high Bim:TRIM2 ratio)): not observed | co-immunoprecipitation of GST-Bim polypeptide with TRIM2 protein [2]: reduced

COc1cccc2c1C(=O)c1c(O)c3c(c(O)c1C2=O)C[C@@](O)(C(=O)CO)C[C@@H]3O[C@H]1C[C@H](N)[C@H](O)[C@H](C)O1 [doxorubicin]
shift in the response to doxorubicin when U0126 is present (HCC1419 cells; HCC1419 cells, 72 h, 100 μM U0126): leftward shift | EC50 (HCC1419 cells; HCC1419 cells, 72 h, absence of U0126, read-out: calculated EC50 of doxorubicin alone): 60 µM | EC50 (HCC1419 cells; HCC1419 cells, 72 h, presence of 100 μM U0126, read-out: calculated EC50 of doxorubicin when combined with U0126): 0.01 µM | responsiveness to combination of doxorubicin and U0126 relative to doxorubicin alone (MCF-7 cells; MCF-7 cells, 72 h): no increased responsiveness
